Assay results reported in patent publication US4481201A, “Pharmaceutical composition containing N,N^3 -di-(β-bromopropionyl)-N^1,N^2 -dispirotripiperazinium dichloride” (Vsesojuzny Nauchno-Issledovatelsky Khimoko-Farmasevtichesky …, priority 1981, dated 1984).
Entries after “also recorded” stand apart in the source; their conditions may differ. Read-outs that look alike come from different tables or passages of the source.

Columns and labels:
Ienssen's sarcoma = assay: Growth of graft Ienssen sarcoma in rats; format: in vivo
From the text: (§1) The antitumor activity has been studied on white rats weighing 110-130 g, as well as on white noninbred and inbred mice weighing 17-21 g with ligated tumors. The treatment is started 5-7 days transplanting of solid tumors and the following day after the transplanting of leukotic strains. Use has been made of the following transplantable strains of the tumors:
(§2) (1) rats: Ienssen's sarcoma, sarcoma 45, sarcoma M-1, sarcoma 536;
(§3) The compounds of the general formula (I), wherein X represents Cl^- (compound 1), Br^- (compound 2) are well-soluble in an isotonic solution of sodium chloride and they are administered intraperitoneally. The doses of the compounds have been calculated in mg per kg of the animal bodyweight.

sarcoma M-1 = assay: Growth of graft sarcoma M-1 in rats; format: in vivo; conditions: rats, 85 mg/kg per os, 6 injections, one experiment
From the text: as §1, §2, §3

sarcoma 180 = assay: Growth of graft sarcoma 180 in mice; format: in vivo, noninbred white mice
From the text: as §1
(2) noninbred white mice: sarcoma 180, sarcoma AK, sarcoma 37, carcinoma HK;
as §3

[1] = Toxicity on single and repeated administration to mice; format: in vivo; conditions: for MTD / LD50: mouse, in vivo; for MTD: read-out: MTD; for Ik index of toxic effect cumulation: intraperitoneal administration; for LD50: read-out: DL50 (average lethal dose)
Description: (3) acute toxicity of the compounds upon a single and repeated administration to white noninbred mice places into standard cages with 8 animals in each.
In the investigation of toxic properties of the compounds according to the present invention there has been determined the absolutely lethal dose (DL95), average lethal dose (DL50) and MTD. For compounds 1 and 2 there were determined DL95 and DL50 on healthy white mice with the body mass of 18-21 g at a single and repeated (once a day, daily for 7 days) intraperitoneal administration.

Solubility = format: physicochemical
Description: as §3
To a mixture of 3 g of N^1,N^2 -dispirotripiperazinium dichloride, 1.5 g of lithium hydroxide, 1 ml of water and 10 ml of ether a solution of 5.2 g of β-bromopropionic acid chlorid in 5 ml of ether is added under vigorous stirring and at a temperature of 5° to 10° C. The reaction mass is stirred for 2 hours at the temperature of 15° C. The residue is filtered off, dissolved in 10 ml of water; the resulting aqueous solution is poured in 100 ml of methanol.

sarcoma 536 = assay: Growth of graft sarcoma 536 in rats; format: in vivo; parameters: key to tumor growth suppression class, Sarcoma 536: +++: tumor growth suppression by 95-100%; ++: tumor growth suppression by 80-95%; +: tumor growth suppression by 60-80%; tumor growth suppression by 30-60%; 0: no effect; conditions: for tumor growth suppression class, Sarcoma 536: rats
From the text: as §1, §2, §3

leukemia La = assay: Life span of mice with transplantable leukemia La; format: in vivo, inbred mice; conditions: mice with transplantable leukemia La
From the text: as §1
(§4) (3) inbred mice: leukemia La, leukemia L1210 and P-388.
(§5) The activity of compounds relative to leukosis has been assessed by the life span (It) of treated animals as compared to the control ones. It --index of suppression of leukosis development is calculated by the formula: [formula]

sarcoma 45 = assay: Growth of graft sarcoma 45 in rats; format: in vivo; conditions: rats
From the text: as §1, §2, §3

leukemia L1210 = assay: Life span of mice with transplantable leukemia L1210; format: in vivo, inbred mice; conditions: mice with transplantable leukemia L1210
From the text: as §1, §4, §5

leukemia P-388 = assay: Life span of mice with transplantable leukemia P-388; format: in vivo, inbred mice; conditions: mice with transplantable leukemia P-388
From the text: as §1, §4, §5

[2] = Distribution of C^14-labeled preparation within organs and tissues of rats with sarcoma M-1; format: in vivo; conditions: rats with sarcoma M-1, intravenous
From the text: Furthermore, the particular distribution of the preparation according to the present invention within organs and tissues should also be noted.
(§6) In the case of administration of the preparation according to the present invention labeled with C^14, a higher level of radioactivity in blood is observed than in the case of prospidin labeled with C^14. A higher rate of accumulation of the preparation according to the present invention as compared to prospidin is observed in larynx, windpipe, bronchi, bone marrow, tumor and thyroid gland. The preparation according to the present invention labeled with C^14 is withdrawn from the organism within 24 hours after the intravenous administration mainly with urine, while C^14 --labeled prospidin is retained in the organism for a longer period.

[3] = Withdrawal of radioactivity from the rats' organism; format: in vivo; parameters: concentration or dose not given beside the values; conditions: 24 hours after intravenous administration, C^14-labeled
From the text: as §6

transplantable leukemia = assay: Activity relative to leukoses of inbred mice (overall); format: in vivo
From the text: (2) activity of the compounds relative to leukoses of inbred mice;
as §1, §4, §5

[4] = mice, single intraperitoneal administration
[5] = ip, mice, single intraperitoneal administration
[6] = rats, per os, 145 mg/kg, 7 injections

O=C(CCBr)N1CC[N+]2(CC1)CC[N+]1(CCN(C(=O)CCBr)CC1)CC2 [Compound 3]
It, % tumor growth suppression index (Ienssen's sarcoma; rats, 83 mg/kg per os (MTD), 7 injections, one experiment): 50% | Change in the animal body weight, test (Ienssen's sarcoma; rats, 83 mg/kg per os, 7 injections, one experiment): -7 g | Change in the animal body weight, test (sarcoma M-1): +1 g | suppression of sarcoma 180 growth (sarcoma 180; mice, per os, at MTD (dose not given)): 35 | MTD ([1]; po, repeated administration, suspension per os): 83 mg/kg | solubility in water (Solubility): sparingly soluble

CN(C)c1nc(NP(=O)(N2CC2)N2CC2)c2c(ncn2C)n1 [Phopurine, 2-dimethylamino-6-diethyleneimido-phosphamido-7-methylpurine, reference compound]
effect on the growth of sarcoma 536 (sarcoma 536; dose not given): does not affect the growth | tumor growth suppression class, Sarcoma 536 (sarcoma 536): 0 | slowing of the growth of sarcoma 180 (sarcoma 180; dose not given): 36% | tumor growth suppression class, Sarcoma 180 (sarcoma 180; mice): + (tumor growth suppression by 60-80%) | It, % index of suppression of leukosis development (leukemia La): 204% | Life span (leukemia La): 22.5 ± 3.4 days | Ik index of toxic effect cumulation ([1]; mice): 12 | DL95 (absolutely lethal dose) [1, 4]: 430 mg/kg | LD50 [1, 5]: 280 mg/kg | MTD ([1]; ip, repeated intraperitoneal administration): 120 mg/kg

OC(CCl)CN1CC[N+]2(CC1)CC[N+]1(CCN(CC(O)CCl)CC1)CC2 (stereo not drawn) [Prospidin, 3,12-diaza-6,9-diazaniumdispiro-[5,2,5,2]-hexadecane-3,12-bis-(3-chloro-2-hydroxypropyl)-dichloride, reference compound]
Ch/T chemotherapeutical index (ratio of MTD to minimum effective dose) (Ienssen's sarcoma; Ienssen sarcoma): 27 | Change in the bodyweight of animals, test (Ienssen's sarcoma; [6]): -9 g | It, % (Ienssen's sarcoma; [6]): +30% | tumor growth suppression class, Sarcoma 45 (sarcoma 45): ++ (tumor growth suppression by 80-95%) | tumor growth suppression class, Sarcoma 536 (sarcoma 536): ++ (tumor growth suppression by 80-95%) | tumor growth suppression class, Sarcoma 180 (sarcoma 180; mice): ++ (tumor growth suppression by 80-95%) | It, % index of suppression of leukosis development (leukemia L1210): 0% | Life span (leukemia L1210): 8.1 ± 0.1 days | It, % index of suppression of leukosis development (leukemia La): 0% | Life span (leukemia La): 6.6 ± 0 days | It, % index of suppression of leukosis development (leukemia P-388): 50% | Life span (leukemia P-388): 14.8 ± 0.3 days | Ik index of toxic effect cumulation ([1]; mice): 58 | DL95 (absolutely lethal dose) ([1]; mice, repeated intraperitoneal administration (once a day, daily for 7 days)): 250 mg/kg | DL50 (average lethal dose) [1, 4]: 1,000 mg/kg | DL95 (absolutely lethal dose) [1, 4]: 1200 mg/kg | LD50 [1, 5]: 1000 mg/kg | Coefficient of differential accumulation, Blood ([2]; 15 min): 0.4 | Coefficient of differential accumulation, Bone marrow ([2]; 15 min): 0.8 | Coefficient of differential accumulation, Bronchi ([2]; 15 min): 2.16 | Coefficient of differential accumulation, Hypophysis ([2]; 15 min): 2.4 | Coefficient of differential accumulation, Kidneys ([2]; 15 min): 3.34 | Coefficient of differential accumulation, Larynx ([2]; 15 min): 0.42 | Coefficient of differential accumulation, Liver ([2]; 15 min): 1.43 | Coefficient of differential accumulation, Lungs ([2]; 15 min): 1.54 | Coefficient of differential accumulation, Lymphonodes ([2]; 15 min): 0.57 | Coefficient of differential accumulation, Spleen ([2]; 15 min): 0.43 | Coefficient of differential accumulation, Thymus gland ([2]; 15 min): 0.16 | Coefficient of differential accumulation, Tumor ([2]; 15 min): 0.65 | Coefficient of differential accumulation, Tyroid gland ([2]; 15 min): 1.2 | Coefficient of differential accumulation, Windpipe ([2]; 15 min): 0.38 | Coefficient of differential accumulation, Blood ([2]; 30 min): 0.1 | Coefficient of differential accumulation, Bone marrow ([2]; 30 min): 0.6 | Coefficient of differential accumulation, Bronchi ([2]; 30 min): 0.82 | Coefficient of differential accumulation, Hypophysis ([2]; 30 min): 1.65 | Coefficient of differential accumulation, Kidneys ([2]; 30 min): 0.67 | Coefficient of differential accumulation, Larynx ([2]; 30 min): 0.32 | Coefficient of differential accumulation, Liver ([2]; 30 min): 0.75 | Coefficient of differential accumulation, Lungs ([2]; 30 min): 0.45 | Coefficient of differential accumulation, Lymphonodes ([2]; 30 min): 0.48 | Coefficient of differential accumulation, Spleen ([2]; 30 min): 0.21 | Coefficient of differential accumulation, Thymus gland ([2]; 30 min): 0.06 | Coefficient of differential accumulation, Tumor ([2]; 30 min): 0.37 | Coefficient of differential accumulation, Tyroid gland ([2]; 30 min): 1.06 | Coefficient of differential accumulation, Windpipe ([2]; 30 min): 0.21 | Coefficient of differential accumulation, Blood ([2]; 60 min): 0.07 | Coefficient of differential accumulation, Bone marrow ([2]; 60 min): 0.52 | Coefficient of differential accumulation, Bronchi ([2]; 60 min): 0.5 | Coefficient of differential accumulation, Hypophysis ([2]; 60 min): 1.47 | Coefficient of differential accumulation, Kidneys ([2]; 60 min): 0.56 | Coefficient of differential accumulation, Larynx ([2]; 60 min): 0.14 | Coefficient of differential accumulation, Liver ([2]; 60 min): 0.67 | Coefficient of differential accumulation, Lungs ([2]; 60 min): 0.2 | Coefficient of differential accumulation, Lymphonodes ([2]; 60 min): 0.14 | Coefficient of differential accumulation, Spleen ([2]; 60 min): 0.11 | Coefficient of differential accumulation, Thymus gland ([2]; 60 min): 0.05 | Coefficient of differential accumulation, Tumor ([2]; 60 min): 0.3 | Coefficient of differential accumulation, Tyroid gland ([2]; 60 min): 0.75 | Coefficient of differential accumulation, Windpipe ([2]; 60 min): 0.1 | Coefficient of differential accumulation, Blood ([2]; 24 hours): 0.01 | Coefficient of differential accumulation, Bone marrow ([2]; 24 hours): 0.18 | Coefficient of differential accumulation, Bronchi ([2]; 24 hours): 0.25 | Coefficient of differential accumulation, Hypophysis ([2]; 24 hours): 0.55 | Coefficient of differential accumulation, Kidneys ([2]; 24 hours): 0.15 | Coefficient of differential accumulation, Larynx ([2]; 24 hours): 0.05 | Coefficient of differential accumulation, Liver ([2]; 24 hours): 0.13 | Coefficient of differential accumulation, Lungs ([2]; 24 hours): 0.06 | Coefficient of differential accumulation, Lymphonodes ([2]; 24 hours): 0.04 | Coefficient of differential accumulation, Spleen ([2]; 24 hours): 0.06 | Coefficient of differential accumulation, Thymus gland ([2]; 24 hours): 0.02 | Coefficient of differential accumulation, Tumor ([2]; 24 hours): 0.07 | Coefficient of differential accumulation, Tyroid gland ([2]; 24 hours): 0.22 | Coefficient of differential accumulation, Windpipe ([2]; 24 hours): 0.07 | Withdrawal of radioactivity, Feces [3]: 7.0% | Withdrawal of radioactivity, Total [3]: 75.0% | Withdrawal of radioactivity, Urina [3]: 68.0% | effect on transplantable leukemia in mice (transplantable leukemia): does not affect the development of leukemiae; also recorded: does not provide any effect
